Assay results taken from ChEMBL document CHEMBL1629583, “Establishment of in vitro susceptibility testing methodologies and comparative activities of piperacillin in combination with the penem {beta}-lactamase inhibitor BLI-489” (2009).
Values after ≈ are worked out from the molar mass of the structure shown.

Assays:
Assay type in all cases: functional
Escherichia coli [1] = assay: Antimicrobial activity against class A extended spectrum beta-lactamase- producing Escherichia coli clinical isolate after 18 to 22 hrs by broth microdilution method
Escherichia coli [2] = assay: Antimicrobial activity against class A extended spectrum beta-lactamase- and class D OXA- producing Escherichia coli clinical isolate after 18 to 22 hrs by broth microdilution method
Pseudomonas aeruginosa = assay: Antimicrobial activity against Pseudomonas aeruginosa clinical isolate after 18 to 22 hrs by broth microdilution method
Serratia marcescens [3] = assay: Antimicrobial activity against AmpC beta-lactamase-producing Serratia marcescens clinical isolate after 18 to 22 hrs by broth microdilution method
Klebsiella pneumoniae [4] = assay: Antimicrobial activity against Klebsiella pneumoniae clinical isolate after 18 to 22 hrs by broth microdilution method
Acinetobacter johnsonii = assay: Antimicrobial activity against Acinetobacter johnsonii clinical isolate after 18 to 22 hrs by broth microdilution method
Staphylococcus aureus [5] = assay: Antimicrobial activity against methicillin-susceptible Staphylococcus aureus clinical isolate after 18 to 22 hrs by broth microdilution method
Citrobacter koseri = assay: Antimicrobial activity against Citrobacter koseri clinical isolate after 18 to 22 hrs by broth microdilution method
Acinetobacter junii = assay: Antimicrobial activity against Acinetobacter junii clinical isolate after 18 to 22 hrs by broth microdilution method
Staphylococcus aureus [6] = assay: Antimicrobial activity against methicillin-resistant Staphylococcus aureus clinical isolate after 18 to 22 hrs by broth microdilution method
[7] = test system: Acinetobacter calcoaceticus; assay: Antimicrobial activity against Acinetobacter calcoaceticus clinical isolate after 18 to 22 hrs by broth microdilution method
Serratia marcescens [8] = assay: Antimicrobial activity against Serratia marcescens clinical isolate after 18 to 22 hrs by broth microdilution method
Klebsiella pneumoniae [9] = assay: Antimicrobial activity against class A extended spectrum beta-lactamase- producing Klebsiella pneumoniae clinical isolate after 18 to 22 hrs by broth microdilution method
Klebsiella aerogenes [10] = assay: Antimicrobial activity against AmpC beta-lactamase-producing Enterobacter aerogenes clinical isolate after 18 to 22 hrs by broth microdilution method
Enterococcus faecalis [11] = assay: Antimicrobial activity against vancomycin-resistant Enterococcus faecalis clinical isolate after 18 to 22 hrs by broth microdilution method
Streptococcus pneumoniae [12] = assay: Antimicrobial activity against penicillin-intermediate Streptococcus pneumoniae clinical isolate after 18 to 22 hrs by broth microdilution method
Enterobacter cloacae [13] = assay: Antimicrobial activity against AmpC beta-lactamase-producing Enterobacter cloacae clinical isolate after 18 to 22 hrs by broth microdilution method
Klebsiella pneumoniae [14] = assay: Antimicrobial activity against class A extended spectrum beta-lactamase- and class D OXA- producing Klebsiella pneumoniae clinical isolate after 18 to 22 hrs by broth microdilution method
Burkholderia cepacia = assay: Antimicrobial activity against Burkholderia cepacia clinical isolate after 18 to 22 hrs by broth microdilution method
Morganella morganii = assay: Antimicrobial activity against Morganella morganii clinical isolate after 18 to 22 hrs by broth microdilution method
Providencia rettgeri = assay: Antimicrobial activity against Providencia rettgeri clinical isolate after 18 to 22 hrs by broth microdilution method
Proteus vulgaris = assay: Antimicrobial activity against Proteus vulgaris clinical isolate after 18 to 22 hrs by broth microdilution method
Streptococcus pyogenes = assay: Antimicrobial activity against Streptococcus pyogenes clinical isolate after 18 to 22 hrs by broth microdilution method
Klebsiella aerogenes [15] = assay: Antimicrobial activity against Enterobacter aerogenes clinical isolate after 18 to 22 hrs by broth microdilution method
Acinetobacter baumannii = assay: Antimicrobial activity against Acinetobacter baumannii clinical isolate after 18 to 22 hrs by broth microdilution method
Citrobacter freundii [16] = assay: Antimicrobial activity against AmpC beta-lactamase-producing Citrobacter freundii clinical isolate after 18 to 22 hrs by broth microdilution method
Enterococcus avium = assay: Antimicrobial activity against Enterococcus avium clinical isolate after 18 to 22 hrs by broth microdilution method
Haemophilus influenzae [17] = assay: Antimicrobial activity against beta-lactamase-producing Haemophilus influenzae clinical isolate after 18 to 22 hrs by broth microdilution method
[18] = test system: Staphylococcus epidermidis; assay: Antimicrobial activity against methicillin-susceptible Staphylococcus epidermidis clinical isolate after 18 to 22 hrs by broth microdilution method
[19] = test system: Acinetobacter haemolyticus; assay: Antimicrobial activity against Acinetobacter haemolyticus clinical isolate after 18 to 22 hrs by broth microdilution method
Enterococcus faecium = assay: Antimicrobial activity against Enterococcus faecium clinical isolate after 18 to 22 hrs by broth microdilution method
Enterococcus faecalis [20] = assay: Antimicrobial activity against Enterococcus faecalis clinical isolate after 18 to 22 hrs by broth microdilution method
Enterococcus gallinarum = assay: Antimicrobial activity against Enterococcus gallinarum clinical isolate after 18 to 22 hrs by broth microdilution method
Escherichia coli [21] = assay: Antimicrobial activity against AmpC beta-lactamase-producing Escherichia coli clinical isolate after 18 to 22 hrs by broth microdilution method
[22] = test system: Staphylococcus haemolyticus; assay: Antimicrobial activity against Staphylococcus haemolyticus clinical isolate after 18 to 22 hrs by broth microdilution method
Haemophilus influenzae [23] = assay: Antimicrobial activity against beta-lactamase-negative Haemophilus influenzae clinical isolate after 18 to 22 hrs by broth microdilution method
Citrobacter freundii [24] = assay: Antimicrobial activity against Citrobacter freundii clinical isolate after 18 to 22 hrs by broth microdilution method
Streptococcus pneumoniae [25] = assay: Antimicrobial activity against penicillin-susceptible Streptococcus pneumoniae clinical isolate after 18 to 22 hrs by broth microdilution method
[26] = test system: Enterococcus casseliflavus; assay: Antimicrobial activity against Enterococcus casseliflavus clinical isolate after 18 to 22 hrs by broth microdilution method
Enterobacter cloacae [27] = assay: Antimicrobial activity against Enterobacter cloacae clinical isolate after 18 to 22 hrs by broth microdilution method

For `CCN1CCN(C(=O)N[C@@H](C(=O)N[C@@H]2C(=O)N3[C@@H]2SC(C)(C)[C@@H]3C(=O)O)c2ccccc2)C(=O)C1=O` [PIPERACILLIN], the MIC (Escherichia coli [1]) was > 128 µg/mL, the MIC50 (Escherichia coli [1]) was > 128 µg/mL and the MIC90 (Escherichia coli [1]) was > 128 µg/mL. For the same compound, the MIC (Escherichia coli [2]) was > 128 µg/mL, the MIC50 (Escherichia coli [2]) was > 128 µg/mL and the MIC90 (Escherichia coli [2]) was > 128 µg/mL. For the same compound, the MIC50 (Pseudomonas aeruginosa) was 16 µg/mL (≈ 30.9 µM), the MIC90 (Pseudomonas aeruginosa) was > 128 µg/mL and the MIC50 (Serratia marcescens [3]) was > 128 µg/mL. For the same compound, the MIC90 (Serratia marcescens [3]) was > 128 µg/mL, the MIC50 (Klebsiella pneumoniae [4]) was 8 µg/mL (≈ 15.5 µM) and the MIC90 (Klebsiella pneumoniae [4]) was 128 µg/mL (≈ 247 µM). For the same compound, the MIC50 (Acinetobacter johnsonii) was 4 µg/mL (≈ 7.73 µM), the MIC90 (Acinetobacter johnsonii) was 128 µg/mL (≈ 247 µM) and the MIC50 (Staphylococcus aureus [5]) was 64 µg/mL (≈ 124 µM). The MIC90 (Staphylococcus aureus [5]) was > 128 µg/mL, the MIC50 (Citrobacter koseri) was 32 µg/mL (≈ 61.8 µM) and the MIC90 (Citrobacter koseri) was > 128 µg/mL. The MIC50 (Acinetobacter junii) was 4 µg/mL (≈ 7.73 µM), the MIC90 (Acinetobacter junii) was 128 µg/mL (≈ 247 µM) and the MIC50 (Staphylococcus aureus [6]) was > 128 µg/mL. The MIC50 [7] was > 128 µg/mL, the MIC90 [7] was > 128 µg/mL and the MIC50 (Serratia marcescens [8]) was 4 µg/mL (≈ 7.73 µM). The MIC90 (Serratia marcescens [8]) was > 128 µg/mL, the MIC (Klebsiella pneumoniae [9]) was > 128 µg/mL and the MIC50 (Klebsiella pneumoniae [9]) was > 128 µg/mL. The MIC90 (Klebsiella pneumoniae [9]) was > 128 µg/mL, the MIC50 (Klebsiella aerogenes [10]) was > 128 µg/mL and the MIC90 (Klebsiella aerogenes [10]) was > 128 µg/mL. For the same compound, the MIC50 (Enterococcus faecalis [11]) was 2 µg/mL (≈ 3.86 µM), the MIC90 (Enterococcus faecalis [11]) was > 128 µg/mL and the MIC50 (Streptococcus pneumoniae [12]) was 0.25 µg/mL (≈ 0.483 µM). The MIC90 (Streptococcus pneumoniae [12]) was 1 µg/mL (≈ 1.93 µM), the MIC50 (Enterobacter cloacae [13]) was > 128 µg/mL and the MIC90 (Enterobacter cloacae [13]) was > 128 µg/mL. For the same compound, the MIC50 (Klebsiella pneumoniae [14]) was > 128 µg/mL, the MIC90 (Klebsiella pneumoniae [14]) was > 128 µg/mL and the MIC50 (Burkholderia cepacia) was 32 µg/mL (≈ 61.8 µM). The MIC90 (Burkholderia cepacia) was 128 µg/mL (≈ 247 µM), the MIC50 (Morganella morganii) was 8 µg/mL (≈ 15.5 µM) and the MIC90 (Morganella morganii) was > 128 µg/mL. For the same compound, the MIC50 (Providencia rettgeri) was 2 µg/mL (≈ 3.86 µM), the MIC50 (Proteus vulgaris) was 64 µg/mL (≈ 124 µM) and the MIC90 (Proteus vulgaris) was > 128 µg/mL. The MIC50 (Streptococcus pyogenes) was 0.03 µg/mL (≈ 0.058 µM), the MIC90 (Streptococcus pyogenes) was 0.06 µg/mL (≈ 0.116 µM) and the MIC50 (Klebsiella aerogenes [15]) was 4 µg/mL (≈ 7.73 µM). The MIC90 (Klebsiella aerogenes [15]) was 128 µg/mL (≈ 247 µM), the MIC50 (Acinetobacter baumannii) was > 128 µg/mL and the MIC90 (Acinetobacter baumannii) was > 128 µg/mL. For the same compound, the MIC50 (Citrobacter freundii [16]) was > 128 µg/mL, the MIC90 (Citrobacter freundii [16]) was > 128 µg/mL and the MIC50 (Enterococcus avium) was 16 µg/mL (≈ 30.9 µM). It also gave an MIC90 (Enterococcus avium) of 64 µg/mL (≈ 124 µM), an MIC50 (Haemophilus influenzae [17]) of 8 µg/mL (≈ 15.5 µM) and an MIC90 (Haemophilus influenzae [17]) of 32 µg/mL (≈ 61.8 µM). It also gave an MIC50 [18] of 2 µg/mL (≈ 3.86 µM), an MIC90 [18] of 8 µg/mL (≈ 15.5 µM) and an MIC50 [19] of 4 µg/mL (≈ 7.73 µM). For the same compound, the MIC90 [19] was 128 µg/mL (≈ 247 µM), the MIC50 (Enterococcus faecium) was 32 µg/mL (≈ 61.8 µM) and the MIC90 (Enterococcus faecium) was > 128 µg/mL. For the same compound, the MIC (Enterococcus faecalis [20]) was 2 µg/mL (≈ 3.86 µM), the MIC50 (Enterococcus faecalis [20]) was 2 µg/mL (≈ 3.86 µM) and the MIC90 (Enterococcus faecalis [20]) was 4 µg/mL (≈ 7.73 µM). For the same compound, the MIC50 (Enterococcus gallinarum) was 4 µg/mL (≈ 7.73 µM), the MIC90 (Enterococcus gallinarum) was 16 µg/mL (≈ 30.9 µM) and the MIC50 (Escherichia coli [21]) was > 128 µg/mL. The MIC90 (Escherichia coli [21]) was > 128 µg/mL, the MIC50 [22] was > 128 µg/mL and the MIC90 [22] was > 128 µg/mL. The MIC50 (Haemophilus influenzae [23]) was 0.015 µg/mL (≈ 0.029 µM), the MIC90 (Haemophilus influenzae [23]) was 0.03 µg/mL (≈ 0.058 µM) and the MIC50 (Citrobacter freundii [24]) was 4 µg/mL (≈ 7.73 µM). For the same compound, the MIC90 (Citrobacter freundii [24]) was > 128 µg/mL, the MIC50 (Streptococcus pneumoniae [25]) was 0.015 µg/mL (≈ 0.029 µM) and the MIC90 (Streptococcus pneumoniae [25]) was 0.03 µg/mL (≈ 0.058 µM). It also gave an MIC50 [26] of 4 µg/mL (≈ 7.73 µM), an MIC90 [26] of 16 µg/mL (≈ 30.9 µM) and an MIC50 (Enterobacter cloacae [27]) of 4 µg/mL (≈ 7.73 µM). The MIC90 (Enterobacter cloacae [27]) was > 128 µg/mL.
